Assays:
[1] = tested on: VEGF-induced newly formed vessels; experiment: In vivo Matrigel plug assay, regression of newly formed vessels; set-up: species or system C57BL/6J mice; details: mice; injected into plug at days 10 and 12, examined day 17; IP-10 10 μg, IP-10dp 100 μg
Description: Further, to verify that IP-10dp is able to cause regression of newly formed vessels in vivo, parallel experiments were conducted on similar mice whereby GFR Matrigel supplemented with VEGF (200 ng/ml) was first injected into both the left and right side groins of mice (establishing a control location and a test location). After 10 days, the left side Matrigel plug was removed (control, n=6) and stained as above for histological examination, with the left side samples being used to establish the extent of new vessel invasion at 10 days. The remaining right side Matrigel plug in the mice was injected with either IP-10 (10 μg) or IP-10dp (100 μg) at days 10 and 12. Day 17, the right side Matrigel plugs were removed and stained for examination as above. FIG. 8D through FIG. 8G are color photographs of tissue samples, showing both 10× and 40× magnifications, taken from laboratory C57BL/6J mice. […]

[2] = tested on: HMEC-1 cells; experiment: Tube dissociation assay on GFR-Matrigel; assay type: cell-based, human; details: IP-10dp 10 μM
Description: For this tube dissociation assay, HMEC-1 cells were first re-suspended in 1% FBS MCDB131 media containing VEGF (75 ng/ml) and incubated on GFR-Matrigel for 24 hrs at 37° C. to allow tube formation (the average result reflected labeled “24 VEGF . . . ” in FIG. 5B). The media was removed and replaced with combinations of VEGF (75 ng/ml), IP-10 (300 ng/ml), or IP-10dp (10 μM) then incubated for another 24 hours. After 48 hours, tubes were still present in the controls treated only with VEGF (labeled 48 hr VEGF in FIG. 5B).
The cells cultures were imaged to assess tube formation using similar procedures to that described above for Experiment 3. […]
Again, quantification of the endothelial tube area for the various cell cultures was determined using MetaMorph, and the data reported in the graph are of at least N=6 and normalized to no treatment (average±SEM), with *P<0.05.

[3] = tested on: HMEC-1 cells; experiment: Tube formation after pre-treatment with CXCR3-neutralizing antibody; assay type: cell-based, human
Description: To determine if the IP-10dp peptide is acting through the same signaling pathways as IP-10, an experiment was conducted using a CXCR3-neutralizing antibody (also referred to herein as CXCR3 Ab) to assess that antibody's impact upon IP-10dp's ability to block tube formation. HMEC-1 cells were grown, detached and re-suspended in serum-free media and all were pretreated with CXCR3 Ab (0.5 μg/ml) 30 minutes prior to the addition of VEGF (75 ng/ml), IP-10 (300 ng/ml), IP-10dp (10 μM) and/or Immunoglobulin G (or “IgG,” as control). The thus-treated cells (1×10^4 cells/well) were added to 24-well culture plates coated with growth factor reduced Matrigel and incubated for 24 hours, and endothelial tubes were allowed to form as described above. Images were obtained as above. […]
Quantification of the endothelial tubes formed was performed as above, using MetaMorph, with the data being shown in the graphs of FIG. 6B are of N=6 and normalized to no treatment (average±SEM), and with *P<0.05.

[4] = tested on: VEGF-induced new vessel formation; experiment: In vivo Matrigel plug assay, vessel development; set-up: species or system C57Bl/6 mice; details: mice, day 10
Description: To determine whether IP-10dp is able to inhibit vessel growth, an in vivo Matrigel assay was used to establish that IP-10dp is able to inhibit angiogenesis. Vessel development and regression in vivo was determined generally according to the method previously described by Bodnar et al. (see Bodnar et al., 2006, supra). In brief, for vessel development GFR Matrigel supplemented with VEGF165 in the absence or presence of IP-10 or IP-10dp was injected into the groin area of the mice. Ten days post inoculation; the Matrigel plug was removed and stained with Masson Trichrome to visualize endothelial infiltration.
Specifically, Matrigel with VEGF was injected into the groin area near the dorsal midline of 12-month-old C57Bl/6 female mice. In addition to Matrigel plus VEGF, the mice were injected with saline (control), 10 μg of IP-10 or 100 μg of IP-10dp. Two injections were made in each mouse in separate dorsal areas, one control injection and the other with the designated experimental treatment. On day 10, the Matrigel plugs were removed and either paraffin embedded or flash frozen. They were prepared and examined histologically for new vessel development using Masson's trichrome staining. […] This particular result is taken as being indicative that IP-10dp has the ability to inhibit VEGF-induced new vessel formation.

For “PESKAIKNLLKAVSKEMSKRSP (IP-10dp; listed as Homo sapiens) [synthetic fragment of IP-10 comprising residues 78-98, the C-terminal α-helical domain]”, the “regression of vessels compared to saline control” value [1] was “significant regression of vessels”, the “endothelial cords following treatment” value ([2]; 24-48 hrs) was “significant decrease in endothelial cords” and the “dissociation of newly formed tubes” value ([2]; treatment 24-48 hrs, presence and absence of VEGF, IP-10 300 ng/ml) was “induce dissociation of newly formed tubes”. The “tube formation inhibition after CXCR3 Ab pre-treatment” value ([3]; CXCR3 Ab 0.5 μg/ml 30 minutes before, IP-10 300 ng/ml, IP-10dp 10 μM) was “significantly blocked”, the “effect on VEGF-driven tube formation when CXCR3 receptor neutralized” value ([3]; CXCR3 Ab 0.5 μg/ml, VEGF 75 ng/ml) was “unable to override the angiogenic signals from VEGF” and the “inhibition of VEGF-induced angiogenesis in Matrigel plug” value ([4]; 10 μg IP-10 or 100 μg IP-10dp with Matrigel plus VEGF, Masson's trichrome) was “inhibited this angiogenesis”. The “inhibition of VEGF-induced new vessel formation compared with IP-10” value ([4]; 100 μg IP-10dp vs 10 μg IP-10) was “more effective than IP-10”.

— US8734775B2, “Chemokine derived peptides that bind with chemokine receptor CXCR3 and uses for chronic wound and angiogenesis inhibition treatments” (University of Pittsburgh, priority 2011, dated 2014)
